Experimental findings from patent publication US6495544B2, “Homoiminopiperidinyl hexanoic acid inhibitors of inducible nitric oxide synthase” (Pharmacia Corporation, priority 2000, dated 2002) are described below.

Test [1] addresses T1, human endothelial constitutive NOS (hecNOS) (Homo sapiens, UniProt P29474).
T1 construct: made in house; host or cells: Sf9 insect cells, baculovirus vector
Put plainly: Citrulline assay for nitric oxide synthase, hecNOS. Format: biochemical. Particulars: 30 μM L-arginine, 37° C., 15 minutes, calmodulin. As to the method:
(§1) Nitric oxide synthase (NOS) activity is measured by monitoring the conversion of [^3H]-arginine to [^3H]-citrulline (Bredt and Snyder, Proc. Natl. Acad. Sci. U.S.A., 87, 682-685, 1990 and Misko et al, Eur. J. Pharm., 233, 119-125, 1993). Human inducible NOS (hiNOS), human endothelial constitutive NOS (hecNOS) and human neuronal constitutive NOS (hncNOS) are each cloned from RNA extracted from human tissue. The cDNA for human inducible NOS (hiNOS) is isolated from a lambda cDNA library made from RNA extracted from a colon sample from a patient with ulcerative colitis. The cDNA for human endothelial constitutive NOS (hecNOS) is isolated from a lambda cDNA library made from RNA extracted from human umbilical vein endothelial cells (HUVEC) and the cDNA for human neuronal constitutive NOS (hncNOS) is isolated from a lambda cDNA library made from RNA extracted from human cerebellum obtained from a cadaver. The recombinant enzymes are expressed in Sf9 insect cells using a baculovirus vector (Rodi et al, in The Biology of Nitric Oxide , Pt. 4: Enzymology Biochemistry and Immunology; Moncada, S., Feelisch, M., Busse, R., Higgs, E., Eds.; Portland Press Ltd.: London, 1995; pp 447-450). Enzyme activity is isolated from soluble cell extracts and partially purified by DEAE-Sepharose chromatography. To measure NOS activity, 10 μL of enzyme is added to 40 μL of 50 mM Tris (pH 7.6) in the presence or absence of test compounds and the reaction initiated by the addition of 50 μL of a reaction mixture containing 5 mM Tris (pH 7.6), 2.0 mg/mL bovine serum albumin, 2.0 mM DTT, 4.0 mM CaCl2, 20 μM FAD, 100 PM tetrahydrobiopterin, 0.4-2.0 mM NADPH and 60 μM L-arginine containing 0.9 μCi of L-[2,3-^3H]-arginine. The final concentration of L-arginine in the assay is 30 μM. For hecNOS or hncNOS, calmodulin is included at a final concentration of 40-100 nM. […] [3H]-Citrulline is separated by chromatography on Dowex 50W X-8 cation exchange resin and radioactivity determined with a liquid scintillation counter. […]

The next test addresses T2, hncNOS (Homo sapiens, UniProt P29475).
T2 construct: made in house; host or cells: Sf9 insect cells, baculovirus vector
Briefly: Assay for time dependent inhibition, hncNOS. Format: biochemical. To be noted: 60 min preincubation. As to the method:
as §1

The target of test [2] is T3, Human inducible NOS (hiNOS) (Homo sapiens, UniProt P35228).
T3 construct: made in house; host or cells: Sf9 insect cells, baculovirus vector
Put plainly: Citrulline assay for nitric oxide synthase, hiNOS. Particulars: 30 μM L-arginine, 37° C., 15 minutes. Format: biochemical. The procedure: as §1

Test [3] concerns inducible nitric oxide synthase. Briefly: In vivo assay, endotoxin-treated rats, plasma nitrite/nitrate. To be noted: oral; for ED50: Rattus norvegicus, read-out: ED50, inhibition of LPS-induced increase in plasma nitrite/nitrate. The procedure: Compounds are administered orally 0.5-1 hours prior to LPS administration and plasma nitrite/nitrate levels are determined 5 hours following LPS administration.

Test [4] deals with nitric oxide synthase induced by recombinant human IL-1β in human cartilage explants. Briefly: Human cartilage explant assay, nitrite production. Format: cell-based. Particulars: IL-1β stimulated, read-out: IC50, inhibition of nitrite production. As to the method: Bone pieces are rinsed twice with Dulbecco's Phosphate Buffered Saline (GibcoBRL) and once with Dulbecco's Modified Eagles Medium (GibcoBRL) and placed into a petri dish with phenol red free Minimum Essential Medium (MEM) (GibcoBRL). Cartilage was cut into small explants of approximately 25-45 mg in weight and one or two explants per well are placed into 48 well culture plates with 500 μL of culture media per well. The culture media was either a custom modification of Minimum Essential Medium(Eagle) with Earle's salts (GibcoBRL) prepared without L-Arginine, without L-Glutamine and without phenol red or a custom modification of serumless Neuman and Tytell (GibcoBRL) medium prepared without L-arginine, without insulin, without ascorbic acid, without L-glutamine and without phenol red. Both are supplemented before use with 100 μM L-Arginine (Sigma), 2 mM L-glutamine, 1×HL-1 supplement (BioWhittaker), […] ascorbic acid (Sigma) and 150 pg/ml recombinant human IL-1β (RD Systems) to induce nitric oxide synthase. Compounds are then added in 10 μL aliquots and the explants incubated at 37° C. with 5% CO2 for 18-24 hours. […] This supernatant is analyzed for nitrite with a fluorometric assay (Misko et al, Anal. Biochem., 214, 11-16, 1993). […] IC50 values (Table III) are determined from plotting the percent inhibition of nitrite production at six different concentrations of inhibitor.

In a further test the target is T4, hecNOS (Homo sapiens, UniProt P29474).
T4 construct: made in house; host or cells: Sf9 insect cells, baculovirus vector
T4 sequence (P29474 2-1203): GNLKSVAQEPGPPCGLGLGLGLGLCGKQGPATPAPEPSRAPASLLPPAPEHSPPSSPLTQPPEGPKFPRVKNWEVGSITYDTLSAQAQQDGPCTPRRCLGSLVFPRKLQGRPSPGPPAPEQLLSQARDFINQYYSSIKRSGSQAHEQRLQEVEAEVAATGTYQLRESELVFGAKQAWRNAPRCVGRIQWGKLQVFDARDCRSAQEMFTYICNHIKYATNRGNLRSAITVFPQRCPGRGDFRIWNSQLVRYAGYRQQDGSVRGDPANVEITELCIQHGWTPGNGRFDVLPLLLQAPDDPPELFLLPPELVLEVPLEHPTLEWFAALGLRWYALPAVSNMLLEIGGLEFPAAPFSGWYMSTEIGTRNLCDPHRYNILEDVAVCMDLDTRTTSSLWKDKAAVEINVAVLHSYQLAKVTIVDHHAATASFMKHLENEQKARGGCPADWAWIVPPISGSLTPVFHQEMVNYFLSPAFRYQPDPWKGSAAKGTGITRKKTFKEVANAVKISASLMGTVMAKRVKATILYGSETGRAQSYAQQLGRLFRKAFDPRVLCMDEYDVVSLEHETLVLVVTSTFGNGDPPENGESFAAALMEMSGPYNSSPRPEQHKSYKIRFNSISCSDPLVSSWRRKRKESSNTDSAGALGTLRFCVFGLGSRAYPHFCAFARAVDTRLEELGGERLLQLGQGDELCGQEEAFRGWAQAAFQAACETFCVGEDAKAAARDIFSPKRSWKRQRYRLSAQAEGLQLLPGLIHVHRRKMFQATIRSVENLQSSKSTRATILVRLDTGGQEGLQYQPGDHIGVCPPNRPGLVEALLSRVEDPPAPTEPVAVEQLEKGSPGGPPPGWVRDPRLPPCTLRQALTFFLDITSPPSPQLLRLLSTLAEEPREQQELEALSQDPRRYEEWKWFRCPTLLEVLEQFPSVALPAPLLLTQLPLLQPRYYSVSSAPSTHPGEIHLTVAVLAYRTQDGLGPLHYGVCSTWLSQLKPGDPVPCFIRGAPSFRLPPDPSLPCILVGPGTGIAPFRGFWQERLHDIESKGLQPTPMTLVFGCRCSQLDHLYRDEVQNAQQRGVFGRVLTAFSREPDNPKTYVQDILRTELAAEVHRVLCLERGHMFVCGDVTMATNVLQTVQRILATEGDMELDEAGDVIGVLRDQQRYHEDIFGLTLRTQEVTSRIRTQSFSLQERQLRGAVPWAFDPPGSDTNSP
Put plainly: Assay for time dependent inhibition, hecNOS. Particulars: 60 min preincubation, read-out: % inhibition of NOS activity, hecNOS. Format: biochemical. As to the method: as §1, with “447-450).” for “447-450). Enzyme activity is isolated from soluble cell extracts and partially purified by DEAE-Sepharose chromatography. To measure NOS activity, 10 μL of enzyme is added to 40 μL of 50 mM Tris (pH 7.6) in the presence or absence of test compounds and the reaction initiated by the addition of 50 μL of a reaction mixture containing 5 mM Tris (pH 7.6), 2.0 mg/mL bovine serum albumin, 2.0 mM DTT, 4.0 mM CaCl2, 20 μM FAD, 100 PM tetrahydrobiopterin, 0.4-2.0 mM NADPH and 60 μM L-arginine containing 0.9 μCi of L-[2,3-^3H]-arginine. The final concentration of L-arginine in the assay is 30 μM. For hecNOS or hncNOS, calmodulin is included at a final concentration of 40-100 nM.”

For test [5], the target named is T5, human neuronal constitutive NOS (hncNOS) (Homo sapiens, UniProt P29475).
T5 construct: made in house; host or cells: Sf9 insect cells, baculovirus vector
Briefly: Citrulline assay for nitric oxide synthase, hncNOS. To be noted: 30 μM L-arginine, 37° C., 15 minutes, calmodulin. Format: biochemical. The procedure: as §1

The mark [6] stands for this setting: 0.5-1 hours prior to LPS, plasma 5 hours after LPS.

T2 sequence (P29475 whole entry): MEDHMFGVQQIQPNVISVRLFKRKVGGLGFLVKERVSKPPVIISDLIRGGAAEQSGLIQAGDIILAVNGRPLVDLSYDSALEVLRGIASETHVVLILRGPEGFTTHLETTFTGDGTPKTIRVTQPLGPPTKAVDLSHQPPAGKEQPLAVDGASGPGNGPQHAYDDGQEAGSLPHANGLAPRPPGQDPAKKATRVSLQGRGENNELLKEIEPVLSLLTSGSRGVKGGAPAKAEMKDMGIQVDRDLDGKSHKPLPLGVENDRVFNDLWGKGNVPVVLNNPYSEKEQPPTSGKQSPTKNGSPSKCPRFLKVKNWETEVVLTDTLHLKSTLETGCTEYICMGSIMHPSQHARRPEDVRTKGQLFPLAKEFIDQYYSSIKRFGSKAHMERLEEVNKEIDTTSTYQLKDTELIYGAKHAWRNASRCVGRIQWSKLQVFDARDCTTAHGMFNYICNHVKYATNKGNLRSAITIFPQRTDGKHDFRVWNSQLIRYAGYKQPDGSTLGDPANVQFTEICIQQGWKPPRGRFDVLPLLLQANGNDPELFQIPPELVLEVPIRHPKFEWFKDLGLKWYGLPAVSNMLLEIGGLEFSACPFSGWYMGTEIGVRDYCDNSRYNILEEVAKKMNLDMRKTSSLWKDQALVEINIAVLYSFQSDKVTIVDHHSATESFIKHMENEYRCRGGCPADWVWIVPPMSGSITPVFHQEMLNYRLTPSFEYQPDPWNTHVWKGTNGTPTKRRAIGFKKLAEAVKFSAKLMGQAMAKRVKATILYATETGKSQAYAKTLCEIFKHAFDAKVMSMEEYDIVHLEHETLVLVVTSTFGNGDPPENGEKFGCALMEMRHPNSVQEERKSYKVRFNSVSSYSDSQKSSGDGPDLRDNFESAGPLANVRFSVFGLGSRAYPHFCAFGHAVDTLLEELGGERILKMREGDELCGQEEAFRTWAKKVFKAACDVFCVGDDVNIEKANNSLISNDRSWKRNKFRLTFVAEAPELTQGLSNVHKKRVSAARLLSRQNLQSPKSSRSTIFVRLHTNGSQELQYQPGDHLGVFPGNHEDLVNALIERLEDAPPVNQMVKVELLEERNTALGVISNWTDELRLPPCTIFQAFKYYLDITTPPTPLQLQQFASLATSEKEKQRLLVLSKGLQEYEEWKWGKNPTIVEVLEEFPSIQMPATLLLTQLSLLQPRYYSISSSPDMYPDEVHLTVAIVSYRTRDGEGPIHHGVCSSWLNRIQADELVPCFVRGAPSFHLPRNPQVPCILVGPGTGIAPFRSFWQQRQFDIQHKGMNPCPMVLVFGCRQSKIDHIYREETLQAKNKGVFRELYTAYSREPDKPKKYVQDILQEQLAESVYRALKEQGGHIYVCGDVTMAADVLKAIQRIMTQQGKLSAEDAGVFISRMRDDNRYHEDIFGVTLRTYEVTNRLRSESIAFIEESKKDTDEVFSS

For the molecule `Cl.N=C1CCCC[C@H](CCCC[C@@H](N)C(=O)O)N1.O.O.O` [Example 1, (αR,2S)-α-aminohexahydro-7-imino-1H-azepine-2-hexanoic acid, trihydrate hydrochloride], the IC50 (in general, the point on the concentration scale where inhibition reaches its midpoint) is over 30 µM in test [1], under 3 µM in test [2], under 10 µM in test [4] and over 3 µM in test [5]. Also, at hncNOS (5 μM), the “% inhibition of NOS activity, hncNOS” value came out at 0% @ 5 μM @ 60 min. Besides, in test [3] (setting [6]), the ED50 is under 3 mg/kg. In addition, in test [3], the “effect on LPS-induced increase in plasma nitrite/nitrate levels” value is given as “inhibited the LPS-induced increase in plasma nitrite/nitrate levels in a dose dependent manner”. Further, the “ED50, inhibition of LPS-induced increase in plasma nitrite/nitrate” value in test [3] (0.5-1 hours prior to LPS, plasma 5 hours after LPS, trihydrate hydrochloride) is listed as under 3 mg/kg. Besides, the inhibition (in general, how much of the control response was suppressed) at 33 µM on hecNOS turned out to be 11%.

Turning to `Cl.N=C1CCCC[C@@H](CCCC[C@H](N)C(=O)O)N1.O.O.O` [Example 2, (αS,2R)-α-aminohexahydro-7-imino-1H-azepine-2-hexanoic acid, trihydrate hydrochloride], the IC50 is over 150 µM in test [1], under 5 µM in test [2] and over 10 µM in test [5]. The “% inhibition of NOS activity, hncNOS” value at hncNOS (13 μM) worked out at 0% @ 13 μM @ 60 min.

With `Cl.N=C1CCCC[C@H](CCCC[C@H](N)C(=O)O)N1.O.O.O` [Example 4, (αS,2S)-α-aminohexahydro-7-imino-1H-azepine-2-hexanoic acid, trihydrate hydrochloride], the IC50 in test [1] was over 15 µM; in test [2], under 3 µM; in test [4] it was under 10 µM; in test [5] it was over 3 µM. Further, on hncNOS (3 μM), the “% inhibition of NOS activity, hncNOS” value is reported as 0% @ 3 μM @ 60 min. Also, the ED50 in test [3] (setting [6]) is under 5 mg/kg.
